Experimental data reported in patent US10669269B2, “Substituted N-(1H-indazol-4-yl)imidazo[1,2-a]pyridine-3-carboxamide compounds as type III receptor tyrosine kinase inhibitors” (ARRAY BIOPHARMA INC., priority 2010, dated 2020).
Where a name gives a salt, the structure may show the parent alone.

Experiments:
PDGFR beta = target: T1, PDGFR beta (Homo sapiens, UniProt P09619); experiment: Phospho PDGFR LICOR Cell Assay (Example B); type: cell-based; details: averaged IC50; PDGFR beta phosphorylation in HS27 human fibroblast cell line, PDGF-BB stimulation 10 minutes, normalized to total ERK
T1 construct: endogenous in cells; host or cells: HS27 human fibroblast cell line
Experimental: Compounds were screened for inhibition of PDGFR beta phosphorylation in the HS27 human fibroblast cell line. Cells were seeded into a 96 well tissue culture plate, then incubated overnight in a 37° C./5% CO2 incubator. The following day, cells were treated for one hour with test compound dilutions. After stimulation with PDGF-BB ligand for 10 minutes, cells were washed with PBS and fixed in 3.7% formaldehyde in PBS for 10 minutes. This was followed by washing in PBS/0.2% Triton X-100 and permeabilizing in 100% MeOH for 10 minutes. Cells were incubated in blocking buffer for 1 hour. Antibodies to phosphorylated PDGFRβ and total ERK were added to the cells and incubated for 3 hours. After washing with PBS/0.2% Triton X-100, the cells were incubated with fluorescently-labeled secondary antibodies for an additional hour. Cells were then washed with PBS and analyzed for fluorescence at both wavelengths using the Odyssey Infrared Imaging System (LI-COR Biosciences). Phosphorylated PDGFR signal was normalized to total ERK signal. A standard 4-parameter logistic model was fit to the inhibitor dose response curves, with the IC50 being defined as the concentration of inhibitor giving 50 percent of control (POC).

cFMS = target: T2, cFMS (Homo sapiens, UniProt P07333); experiment: cFMS Cell-Based Assay (Example C); details: averaged IC50; phospho-cFMS in THP-1 cells stimulated with 250 ng/mL recombinant human MCSF; read-out: cFMS Cell ELISA IC50
T2 construct: THP-1 cells (human acute monocytic leukemia cell line) were serum-starved for 4 hours; endogenous in cells; host or cells: THP-1 cells (human acute monocytic leukemia cell line)
Experimental: The ability of compounds of Formula I to inhibit cFMS activation in cells was determined by the following assay. THP-1 cells (human acute monocytic leukemia cell line) were serum-starved for 4 hours prior to treatment with compounds of Formula I for 1 hour. The concentration of compounds of Formula I was varied over a 9-point, 3-fold dilution series with 5,000 nM typically being the highest dose. Cell culture and treatment were carried out in a humidified 37° C., 5% CO2 incubator. Treated cells were stimulated with 250 ng/mL recombinant human MCSF for 1 minute to induce activation of cFMS. Cells were lysed in a manner which preserves phosphoproteins, and the lysate was analyzed by ELISA (R&D Systems, Human Phospho-M-CSF R DuoSet IC DYC3268), in which total cFMS protein in the lysate is captured and phosphotyrosine residues of cFMS are detected. A standard curve, made using purified phospho-M-CSF R protein, was used to quantify phospho-c-FMS in compound-treated wells. A standard 4-parameter logistic model was fit to the inhibitor dose response curves, with the IC50 being defined as the concentration of inhibitor giving 50 percent of control (POC).

c-KIT = target: T3, c-KIT (Homo sapiens, UniProt P10721); experiment: c-KIT Cell-Based Assay (Example D); details: averaged IC50; phospho-c-KIT in M-07e cells stimulated with 150 ng/ml recombinant human SCF; read-out: cKIT Cell ELISA IC50
T3 construct: M-07e cells (human acute megakaryoblastic leukemia cell line) were serum-starved for 4 hours; endogenous in cells; host or cells: M-07e cells (human acute megakaryoblastic leukemia cell line)
Experimental: The ability of compounds of Formula I to inhibit c-KIT activation in cells was determined by the following assay. M-07e cells (human acute megakaryoblastic leukemia cell line) were serum-starved for 4 hours prior to treatment with compounds of Formula I for 1 hour. The concentration of compounds of Formula I was varied over a 9-point, 3-fold dilution series with 5,000 nM typically being the highest dose. Cell culture and treatment were carried out in a humidified 37° C., 5% CO2 incubator. Treated cells were stimulated with 150 ng/ml recombinant human SCF for 4 minutes to induce activation of c-KIT. Cells were lysed in a manner which preserves phosphoproteins, and the lysate was analyzed by ELISA (R&D Systems, Human Phospho-SCF R DuoSet IC DYC3527), in which total c-KIT protein in the lysate is captured and phosphotyrosine residues of c-Kit are detected. A standard curve, made using purified phospho-SCF R protein, was used to quantify phospho-c-KIT in compound-treated wells. A standard 4-parameter logistic model was fit to the inhibitor dose response curves, with the IC50 being defined as the concentration of inhibitor giving 50 percent of control (POC).

T1 sequence (P09619 33-1106): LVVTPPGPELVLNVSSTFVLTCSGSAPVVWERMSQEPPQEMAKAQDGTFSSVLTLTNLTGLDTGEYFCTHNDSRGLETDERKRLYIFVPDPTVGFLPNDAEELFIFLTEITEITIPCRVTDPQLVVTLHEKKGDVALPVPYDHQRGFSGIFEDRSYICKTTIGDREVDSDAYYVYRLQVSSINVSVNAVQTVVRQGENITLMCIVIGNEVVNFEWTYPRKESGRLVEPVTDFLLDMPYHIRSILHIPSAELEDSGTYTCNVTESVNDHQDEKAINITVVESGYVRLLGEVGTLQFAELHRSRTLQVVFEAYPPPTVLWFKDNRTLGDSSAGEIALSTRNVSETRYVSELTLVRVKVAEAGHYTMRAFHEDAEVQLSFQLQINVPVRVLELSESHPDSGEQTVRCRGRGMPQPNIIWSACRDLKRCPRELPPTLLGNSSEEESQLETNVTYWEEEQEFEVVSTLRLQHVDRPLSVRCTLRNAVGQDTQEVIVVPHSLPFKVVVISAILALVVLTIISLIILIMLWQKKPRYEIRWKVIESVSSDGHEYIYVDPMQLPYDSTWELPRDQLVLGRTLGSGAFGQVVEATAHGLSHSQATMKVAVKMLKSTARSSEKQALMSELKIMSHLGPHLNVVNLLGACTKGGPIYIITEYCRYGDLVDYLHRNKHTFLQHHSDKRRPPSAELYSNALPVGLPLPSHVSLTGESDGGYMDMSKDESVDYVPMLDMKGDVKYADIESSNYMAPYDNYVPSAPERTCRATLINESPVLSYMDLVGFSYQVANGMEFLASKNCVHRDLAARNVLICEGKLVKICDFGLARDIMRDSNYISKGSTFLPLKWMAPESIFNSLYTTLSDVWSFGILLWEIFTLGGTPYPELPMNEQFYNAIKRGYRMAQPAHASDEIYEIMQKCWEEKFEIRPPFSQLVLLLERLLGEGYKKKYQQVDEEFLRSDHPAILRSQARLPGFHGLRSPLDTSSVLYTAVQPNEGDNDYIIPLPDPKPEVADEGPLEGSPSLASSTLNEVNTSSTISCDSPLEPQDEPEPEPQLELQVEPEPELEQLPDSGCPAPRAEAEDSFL
T2 sequence (P07333 20-972): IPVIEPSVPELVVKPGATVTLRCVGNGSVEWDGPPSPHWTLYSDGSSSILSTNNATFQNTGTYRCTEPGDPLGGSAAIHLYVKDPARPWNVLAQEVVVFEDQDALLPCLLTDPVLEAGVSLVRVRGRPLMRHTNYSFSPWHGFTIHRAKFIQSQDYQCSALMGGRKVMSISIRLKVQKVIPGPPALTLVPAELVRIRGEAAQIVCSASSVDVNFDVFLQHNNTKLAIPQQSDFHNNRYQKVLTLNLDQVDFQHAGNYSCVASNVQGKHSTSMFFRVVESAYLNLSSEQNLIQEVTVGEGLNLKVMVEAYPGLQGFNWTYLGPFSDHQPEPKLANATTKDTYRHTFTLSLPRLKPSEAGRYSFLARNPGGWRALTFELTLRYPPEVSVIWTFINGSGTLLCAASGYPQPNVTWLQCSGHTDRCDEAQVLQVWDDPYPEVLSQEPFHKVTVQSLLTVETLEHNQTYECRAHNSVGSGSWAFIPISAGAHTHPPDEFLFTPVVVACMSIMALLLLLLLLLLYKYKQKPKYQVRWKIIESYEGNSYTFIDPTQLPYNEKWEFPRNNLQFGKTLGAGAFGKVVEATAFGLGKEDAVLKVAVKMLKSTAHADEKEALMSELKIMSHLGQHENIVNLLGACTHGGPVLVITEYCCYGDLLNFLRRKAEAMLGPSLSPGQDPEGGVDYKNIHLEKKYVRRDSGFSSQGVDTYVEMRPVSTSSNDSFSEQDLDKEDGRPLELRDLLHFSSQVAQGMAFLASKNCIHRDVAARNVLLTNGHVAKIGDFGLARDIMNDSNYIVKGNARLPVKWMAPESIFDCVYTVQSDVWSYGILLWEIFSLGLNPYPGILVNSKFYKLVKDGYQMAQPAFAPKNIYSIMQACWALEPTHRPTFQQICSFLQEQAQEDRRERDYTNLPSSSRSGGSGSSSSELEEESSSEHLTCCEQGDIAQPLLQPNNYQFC
T3 sequence (P10721 26-976): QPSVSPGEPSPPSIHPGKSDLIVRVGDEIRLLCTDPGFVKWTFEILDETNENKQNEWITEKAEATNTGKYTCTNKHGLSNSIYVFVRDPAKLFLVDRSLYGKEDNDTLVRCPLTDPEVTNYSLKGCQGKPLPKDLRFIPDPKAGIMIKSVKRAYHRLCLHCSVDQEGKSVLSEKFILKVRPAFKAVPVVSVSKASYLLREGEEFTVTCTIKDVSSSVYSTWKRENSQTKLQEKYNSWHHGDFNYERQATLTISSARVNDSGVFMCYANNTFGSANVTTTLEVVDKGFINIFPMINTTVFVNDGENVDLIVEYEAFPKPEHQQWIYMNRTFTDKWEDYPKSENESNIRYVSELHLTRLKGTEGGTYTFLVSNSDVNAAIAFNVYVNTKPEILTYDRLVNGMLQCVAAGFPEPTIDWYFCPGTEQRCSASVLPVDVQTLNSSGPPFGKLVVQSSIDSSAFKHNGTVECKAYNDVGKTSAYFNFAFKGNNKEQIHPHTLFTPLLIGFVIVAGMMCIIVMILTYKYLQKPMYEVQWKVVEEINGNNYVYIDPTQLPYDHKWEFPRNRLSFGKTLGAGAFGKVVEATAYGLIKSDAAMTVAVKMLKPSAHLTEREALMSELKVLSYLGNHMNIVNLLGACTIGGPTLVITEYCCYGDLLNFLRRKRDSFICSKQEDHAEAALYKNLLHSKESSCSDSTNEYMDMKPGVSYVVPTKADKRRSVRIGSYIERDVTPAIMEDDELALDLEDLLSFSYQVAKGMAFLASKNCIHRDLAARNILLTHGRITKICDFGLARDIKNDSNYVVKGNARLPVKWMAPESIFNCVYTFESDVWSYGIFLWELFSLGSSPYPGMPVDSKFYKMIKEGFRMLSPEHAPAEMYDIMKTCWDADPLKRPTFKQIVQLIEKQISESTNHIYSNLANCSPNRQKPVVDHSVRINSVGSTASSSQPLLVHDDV

Row | Structure (SMILES) | IC50 (PDGFR beta) | IC50 (cFMS) | IC50 (c-KIT)
1 | Cc1nn(Cc2cc(C)n(C(C)C)n2)c2cccc(NC(=O)c3cnc4cc(OCCN5CC6(CN(C)C6)C5)ccn34)c12 [Example 8, N-(1-((1-Isopropyl-5-methyl-1H-pyrazol-3-yl)methyl)-3-methyl-1H-indazol-4-yl)-7-(2-(6-methyl-2,6-diazaspiro[3.3]heptan-2-yl)ethoxy)imidazo[1,2-a]pyridine-3-carboxamide] | 32.6 nM | 33.6 nM | 122 nM
2 | Cc1nn(Cc2cc(C)n(C(C)C)n2)c2cccc(NC(=O)c3cnc4cc(OCCN5C[C@@H](C)N(C)[C@@H](C)C5)ccn34)c12 [Example 9, N-(1-((1-isopropyl-5-methyl-1H-pyrazol-3-yl)methyl)-3-methyl-1H-indazol-4-yl)-7-(2-((3S,5R)-3,4,5-trimethylpiperazin-1-yl)ethoxy)imidazo[1,2-a]pyridine-3-carboxamide] | 166 nM | 21.2 nM | 143 nM
3 | Cc1nn(Cc2cc(C)n(C(C)C)n2)c2cccc(NC(=O)c3cnc4cc(OCCN5CCN(C(C)C)CC5)ccn34)c12 [Example 10, N-(1-((1-Isopropyl-5-methyl-1H-pyrazol-3-yl)methyl)-3-methyl-1H-indazol-4-yl)-7-(2-(4-isopropylpiperazin-1-yl)ethoxy)imidazo[1,2-a]pyridine-3-carboxamide] | 40.8 nM | 25.3 nM | 141 nM
4 | Cc1nn(Cc2cc(C)n(C(C)C)n2)c2cccc(NC(=O)c3cnc4cc(OCCN5CCCN(C)CC5)ccn34)c12 [Example 11, N-(1-((1-isopropyl-5-methyl-1H-pyrazol-3-yl)methyl)-3-methyl-1H-indazol-4-yl)-7-(2-(4-methyl-1,4-diazepan-1-yl)ethoxy)imidazo[1,2-a]pyridine-3-carboxamide] | 46.5 nM | 26.2 nM | 157 nM
5 | Cc1nn(Cc2cc(C)n(C(C)C)n2)c2cccc(NC(=O)c3cnc4cc(OCCN5CCN(C)[C@@H](C)C5)ccn34)c12 [Example 29, (S)-7-(2-(3,4-dimethylpiperazin-1-yl)ethoxy)-N-(1-((1-isopropyl-5-methyl-1H-pyrazol-3-yl)methyl)-3-methyl-1H-indazol-4-yl)imidazo[1,2-a]pyridine-3-carboxamide] | 44.1 nM | 28.6 nM | 162 nM
6 | Cc1cccc(Cn2nc(C)c3c(NC(=O)c4cnc5cc(OCCN6CCCC6)ccn45)cccc32)n1 [Example 55, N-(3-methyl-1-((6-methylpyridin-2-yl)methyl)-1H-indazol-4-yl)-7-(2-(pyrrolidin-1-yl)ethoxy)imidazo[1,2-a]pyridine-3-carboxamide dihydrochloride] | 305 nM | 40.1 nM | 
7 | COCCNCCc1ccn2c(C(=O)Nc3cccc4c3c(C)nn4Cc3cccc(C)n3)cnc2c1 [Example 74, 7-(2-(2-methoxyethylamino)ethyl)-N-(3-methyl-1-((6-methylpyridin-2-yl)methyl)-1H-indazol-4-yl)imidazo[1,2-a]pyridine-3-carboxamide] |  | 79.5 nM | 
8 | O=C(Nc1cccc2c1cnn2CC1CCCCO1)c1cnc2ccccn12 (stereo not shown) [Example 128, N-(1-((tetrahydro-2H-pyran-2-yl)methyl)-1H-indazol-4-yl)imidazo[1,2-a]pyridine-3-carboxamide] |  | 131 nM | 
9 | COCCOc1ccn2c(C(=O)Nc3cccc4c3cnn4Cc3cccc(O)c3)cnc2c1 [Example 130, N-(1-(3-hydroxybenzyl)-1H-indazol-4-yl)-7-(2-methoxyethoxy)imidazo[1,2-a]pyridine-3-carboxamide] | 114 nM | 442 nM | 
10 | COCCOc1ccn2c(C(=O)Nc3cccc4c3cnn4-c3ccccc3)cnc2c1 [Example 133, 7-(2-Methoxyethoxy)-N-(1-phenyl-1H-indazol-4-yl)imidazo[1,2-a]pyridine-3-carboxamide] | 1000 nM | 99.1 nM | 

These reach a lower IC50 (cFMS). Values come first.

Row | IC50 (PDGFR beta) | IC50 (cFMS) | IC50 (c-KIT) | Structure (SMILES)
11 | 44 nM | 11.4 nM | 50.4 nM | Cc1nn(Cc2csc(C(C)C)n2)c2cccc(NC(=O)c3cnc4cc(OCCN5CCN(C)CC5)ccn34)c12 [Example 12, N-(1-((2-isopropylthiazol-4-yl)methyl)-3-methyl-1H-indazol-4-yl)-7-(2-(4-methylpiperazin-1-yl)ethoxy)imidazo[1,2-a]pyridine-3-carboxamide]
12 | 11.3 nM | 12.9 nM | 76.3 nM | Cc1nn(Cc2csc(C(C)C)n2)c2cccc(NC(=O)c3cnc4cc(OCCN5CC6(CN(C)C6)C5)ccn34)c12 [Example 13, N-(1-((2-isopropylthiazol-4-yl)methyl)-3-methyl-1H-indazol-4-yl)-7-(2-(6-methyl-2,6-diazaspiro[3.3]heptan-2-yl)ethoxy)imidazo[1,2-a]pyridine-3-carboxamide]
13 | 46.2 nM | 12 nM | 60.6 nM | Cc1nn(Cc2csc(C(C)C)n2)c2cccc(NC(=O)c3cnc4cc(OCCN5CCN(C(C)C)CC5)ccn34)c12 [Example 15, 7-(2-(4-isopropylpiperazin-1-yl)ethoxy)-N-(1-((2-isopropylthiazol-4-yl)methyl)-3-methyl-1H-indazol-4-yl)imidazo[1,2-a]pyridine-3-carboxamide]
14 | 17.4 nM | 17.6 nM | 65.3 nM | Cc1nn(Cc2csc(C(C)C)n2)c2cccc(NC(=O)c3cnc4cc(OCCN5CCN(C)[C@@H](C)C5)ccn34)c12 [Example 30, (S)-7-(2-(3,4-dimethylpiperazin-1-yl)ethoxy)-N-(1-((2-isopropylthiazol-4-yl)methyl)-3-methyl-1H-indazol-4-yl)imidazo[1,2-a]pyridine-3-carboxamide]
15 | 47.7 nM | 13.3 nM | 45.1 nM | Cc1nn(Cc2ccn(C(C)C)n2)c2cccc(NC(=O)c3cnc4cc(OCCN5CCN(C)CC5)ccn34)c12 [Example 48, N-(1-((1-isopropyl-1H-pyrazol-3-yl)methyl)-3-methyl-1H-indazol-4-yl)-7-(2-(4-methylpiperazin-1-yl)ethoxy)imidazo[1,2-a]pyridine-3-carboxamide bis hydrochloride]
16 | 9.7 nM | 11.8 nM | 53.5 nM | Cc1nn(Cc2ccn(C(C)C)n2)c2cccc(NC(=O)c3cnc4cc(OCCN5CCN(C(C)C)CC5)ccn34)c12 [Example 49, N-(1-((1-isopropyl-1H-pyrazol-3-yl)methyl)-3-methyl-1H-indazol-4-yl)-7-(2-(4-isopropylpiperazin-1-yl)ethoxy)imidazo[1,2-a]pyridine-3-carboxamide]
17 |  | 5.8 nM |  | Cc1ccc(-c2ccn3c(C(=O)Nc4cccc5c4c(C)nn5Cc4cccc(C)n4)cnc3c2)cn1 [Example 50, N-(3-methyl-1-((6-methylpyridin-2-yl)methyl)-1H-indazol-4-yl)-7-(6-methylpyridin-3-yl)imidazo[1,2-a]pyridine-3-carboxamide di-hydrochloride]
18 |  | 8.2 nM |  | Cc1cccc(Cn2nc(C)c3c(NC(=O)c4cnc5cc(-c6c(C)n[nH]c6C)ccn45)cccc32)n1 [Example 69, 7-(3,5-dimethyl-1H-pyrazol-4-yl)-N-(3-methyl-1-((6-methylpyridin-2-yl)methyl)-1H-indazol-4-yl)imidazo[1,2-a]pyridine-3-carboxamide]
